{"source": "paper PMC6222329", "about": "(Molecules : A Journal of Synthetic Chemistry and Natural …, 2018)", "type_in_all_cases": "biochemical", "key": {"[1]": {"target": "T1, AChE (Electrophorus electricus) (Electrophorus electricus, UniProt O42275)", "T1 construct": "purchased Sigma-Aldrich (Steinheim, Germany)", "T1 sequence (O42275 24-633)": "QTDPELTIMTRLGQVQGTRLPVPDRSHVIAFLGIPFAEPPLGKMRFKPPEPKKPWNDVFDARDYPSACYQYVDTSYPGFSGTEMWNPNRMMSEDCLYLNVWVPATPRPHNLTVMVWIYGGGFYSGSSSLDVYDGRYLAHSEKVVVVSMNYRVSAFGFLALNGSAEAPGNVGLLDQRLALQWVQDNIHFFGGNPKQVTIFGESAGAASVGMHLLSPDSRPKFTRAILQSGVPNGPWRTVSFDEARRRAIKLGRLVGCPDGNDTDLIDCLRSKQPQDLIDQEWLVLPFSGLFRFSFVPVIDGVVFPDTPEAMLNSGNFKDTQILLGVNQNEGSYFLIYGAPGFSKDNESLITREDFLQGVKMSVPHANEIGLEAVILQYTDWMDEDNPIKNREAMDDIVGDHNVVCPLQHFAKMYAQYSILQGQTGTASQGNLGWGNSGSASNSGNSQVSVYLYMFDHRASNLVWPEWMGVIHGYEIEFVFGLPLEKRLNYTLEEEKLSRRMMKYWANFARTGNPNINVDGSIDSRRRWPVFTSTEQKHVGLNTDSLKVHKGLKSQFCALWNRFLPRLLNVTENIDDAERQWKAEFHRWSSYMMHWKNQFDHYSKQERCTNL", "assay": "AChE inhibition, Ellman's method", "procedure": "(§1) The assay was performed in two steps.\n(§2) All enzymes were obtained from Sigma-Aldrich (Steinheim, Germany). Ellman’s reagent and the substrates were obtained from Fluka (Buchs, Switzerland). The chemicals used to prepare the buffer solution were purchased from Merck (Darmstadt, Germany).\n(§3) The enzyme inhibitory activities of the synthesized compounds were investigated by applying Ellman’s method. Enzyme solutions were dissolved in gelatin solution (1%; 2.5 units/mL). […] Then, the reaction was initiated by the addition of Ellman’s reagent 5,5′-Dithiobis(2-nitrobenzoic acid) (DTNB; 20 µL/well, 10 mM) and the substrate (10 µL/well, 75 mM). […] The enzyme solution was processed as a control. All readings were adjusted with blank-reading. All assays were performed in four independent wells. […] Absorbance differences between the two readings were taken, and percentage inhibition rates were calculated according to the following formula: % Inhibition=[(A(C)−A(B))−(A(I)−A(B))]/(A(C)−A(B))×100.\n(§4) • Blank (B): the well in which the inhibitor compound and substrate were not added; • Control (C): the well where the inhibitor compound was not added; • A(B): the difference in absorbance reading for the blank; • A(C): the difference in absorbance reading for the control; • A(I): the difference in absorbance reading for the inhibitor compounds."}, "AChE (Human)": {"target": "T2, AChE (Human) (Homo sapiens, UniProt P22303)", "T2 construct": "purchased Sigma-Aldrich (Steinheim, Germany)", "T2 sequence (P22303 32-614)": "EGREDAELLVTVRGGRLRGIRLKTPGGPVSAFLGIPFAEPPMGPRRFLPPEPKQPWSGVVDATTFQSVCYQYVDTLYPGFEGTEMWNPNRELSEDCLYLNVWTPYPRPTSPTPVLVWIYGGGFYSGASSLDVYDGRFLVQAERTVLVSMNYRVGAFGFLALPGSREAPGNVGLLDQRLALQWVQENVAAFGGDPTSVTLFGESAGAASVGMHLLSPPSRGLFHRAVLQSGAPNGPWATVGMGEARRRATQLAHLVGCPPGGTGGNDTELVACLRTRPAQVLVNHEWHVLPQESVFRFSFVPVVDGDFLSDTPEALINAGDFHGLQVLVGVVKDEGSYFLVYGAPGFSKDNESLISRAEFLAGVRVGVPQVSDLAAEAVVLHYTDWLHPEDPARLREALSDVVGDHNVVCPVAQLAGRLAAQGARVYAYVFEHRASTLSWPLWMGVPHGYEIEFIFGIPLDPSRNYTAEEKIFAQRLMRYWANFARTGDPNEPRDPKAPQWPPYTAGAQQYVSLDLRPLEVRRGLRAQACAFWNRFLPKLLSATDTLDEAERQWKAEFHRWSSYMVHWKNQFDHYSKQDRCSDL", "assay": "AChE inhibition, Ellman's method", "procedure": "as §1, §2, §3, §4"}, "BChE (Equine)": {"target": "T3, BChE (Equine) (Equus caballus, UniProt P81908)", "T3 construct": "purchased Sigma-Aldrich (Steinheim, Germany)", "T3 sequence (P81908 whole entry)": "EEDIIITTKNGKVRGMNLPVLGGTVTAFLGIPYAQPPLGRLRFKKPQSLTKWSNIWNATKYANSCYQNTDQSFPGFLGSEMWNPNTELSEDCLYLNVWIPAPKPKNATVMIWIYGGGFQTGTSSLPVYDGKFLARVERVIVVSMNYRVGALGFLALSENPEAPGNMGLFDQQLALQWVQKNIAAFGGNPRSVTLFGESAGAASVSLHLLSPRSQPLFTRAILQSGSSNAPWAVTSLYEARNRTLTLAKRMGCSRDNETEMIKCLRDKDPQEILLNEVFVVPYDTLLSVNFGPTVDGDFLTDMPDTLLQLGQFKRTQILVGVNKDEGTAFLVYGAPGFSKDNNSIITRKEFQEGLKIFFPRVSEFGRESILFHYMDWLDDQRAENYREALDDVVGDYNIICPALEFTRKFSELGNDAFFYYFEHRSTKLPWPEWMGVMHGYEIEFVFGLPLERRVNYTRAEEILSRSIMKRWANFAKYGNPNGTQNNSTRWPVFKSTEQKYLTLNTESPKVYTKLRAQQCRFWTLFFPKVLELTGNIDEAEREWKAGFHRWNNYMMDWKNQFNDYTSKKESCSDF", "assay": "biochemical", "procedure": "as §1, §2, §3, §4"}, "BChE (Human)": {"target": "T4, BChE (Human) (Homo sapiens, UniProt P06276)", "T4 construct": "purchased Sigma-Aldrich (Steinheim, Germany)", "T4 sequence (P06276 29-602)": "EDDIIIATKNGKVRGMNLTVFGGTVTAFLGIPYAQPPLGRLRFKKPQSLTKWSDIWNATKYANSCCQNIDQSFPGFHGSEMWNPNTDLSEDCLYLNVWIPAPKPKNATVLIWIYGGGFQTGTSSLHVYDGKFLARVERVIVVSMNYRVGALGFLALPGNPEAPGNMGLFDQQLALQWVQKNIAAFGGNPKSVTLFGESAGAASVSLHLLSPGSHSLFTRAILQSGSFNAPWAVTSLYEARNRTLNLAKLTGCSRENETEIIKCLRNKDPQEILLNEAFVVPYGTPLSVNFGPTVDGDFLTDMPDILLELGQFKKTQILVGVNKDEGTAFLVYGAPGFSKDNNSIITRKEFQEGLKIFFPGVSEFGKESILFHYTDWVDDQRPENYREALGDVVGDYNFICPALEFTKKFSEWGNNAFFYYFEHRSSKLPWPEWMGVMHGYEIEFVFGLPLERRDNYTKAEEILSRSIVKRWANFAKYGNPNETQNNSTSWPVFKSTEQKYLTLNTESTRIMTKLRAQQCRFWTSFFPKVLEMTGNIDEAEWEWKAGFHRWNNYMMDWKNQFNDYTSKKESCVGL", "assay": "BChE inhibition, Ellman's method", "procedure": "as §1, §2, §3, §4"}, "[2]": {"settings": "read-out: BChE (Equine) inhibitory activity (%) ± SD"}}}
{"molecule": "COc1ccc(N2CCN(C(=S)SCC(=O)Nc3c4ccccc4nc4ccccc34)CC2)cc1", "note": "[Compound 4h, 2-(9-Acridinylamino)-2-oxoethyl 4-(4-methoxyphenyl)piperazine-1-carbodithioate]", "values": [{"measurement": "AChE (Electrophorus electricus) inhibitory activity (%) ± SD", "setting": "[1]; 10^-3 M", "result": "30.87±1.01", "unit": "%"}, {"measurement": "AChE (Electrophorus electricus) inhibitory activity (%) ± SD", "setting": "[1]; 10^-4 M", "result": "15.23 ± 0.69", "unit": "%"}, {"measurement": "AChE (Human) inhibitory activity (%) ± SD", "setting": "AChE (Human); 10^-3 M", "result": "35.77±1.62", "unit": "%"}, {"measurement": "AChE (Human) inhibitory activity (%) ± SD", "setting": "AChE (Human); 10^-4 M", "result": "18.39 ± 0.57", "unit": "%"}, {"measurement": "BChE (Equine) inhibitory activity (%) ± SD", "setting": "BChE (Equine); 10^-3 M", "result": "84.02±2.35", "unit": "%"}, {"measurement": "BChE (Equine) inhibitory activity (%) ± SD", "setting": "BChE (Equine); 10^-4 M", "result": "12.64 ± 0.46", "unit": "%"}, {"measurement": "BChE (Human) inhibitory activity (%) ± SD", "setting": "BChE (Human); 10^-3 M", "result": "80.88±2.05", "unit": "%"}, {"measurement": "BChE (Human) inhibitory activity (%) ± SD", "setting": "BChE (Human); 10^-4 M", "result": "15.58 ± 0.67", "unit": "%"}]}
{"molecule": "O=C(CSC(=S)N1CCN(c2ncccn2)CC1)Nc1c2ccccc2nc2ccccc12", "note": "[Compound 4j, 2-(9-Acridinylamino)-2-oxoethyl 4-(pyrimidin-2-yl)piperazine-1-carbodithioate]", "values": [{"measurement": "AChE (Electrophorus electricus) inhibitory activity (%) ± SD", "setting": "[1]; 10^-3 M", "result": "69.08±1.67", "unit": "%"}, {"measurement": "AChE (Electrophorus electricus) inhibitory activity (%) ± SD", "setting": "[1]; 10^-4 M", "result": "2.88 ± 0.18", "unit": "%"}, {"measurement": "AChE (Human) inhibitory activity (%) ± SD", "setting": "AChE (Human); 10^-3 M", "result": "66.71±1.06", "unit": "%"}, {"measurement": "AChE (Human) inhibitory activity (%) ± SD", "setting": "AChE (Human); 10^-4 M", "result": "5.97 ± 0.22", "unit": "%"}, {"measurement": "BChE (Equine) inhibitory activity (%) ± SD", "setting": "BChE (Equine); 10^-3 M", "result": "92.87±2.84", "unit": "%"}, {"measurement": "BChE (Equine) inhibitory activity (%) ± SD", "setting": "BChE (Equine); 10^-4 M", "result": "27.86 ± 1.07", "unit": "%"}, {"measurement": "BChE (Human) inhibitory activity (%) ± SD", "setting": "BChE (Human); 10^-3 M", "result": "90.51±2.18", "unit": "%"}, {"measurement": "BChE (Human) inhibitory activity (%) ± SD", "setting": "BChE (Human); 10^-4 M", "result": "30.77 ± 1.20", "unit": "%"}]}
{"molecule": "O=C(CSC(=S)N1CCN(Cc2ccccc2)CC1)Nc1c2ccccc2nc2ccccc12", "note": "[Compound 4k, 2-(9-Acridinylamino)-2-oxoethyl 4-benzylpiperazine-1-carbodithioate]", "values": [{"measurement": "AChE (Electrophorus electricus) inhibitory activity (%) ± SD", "setting": "[1]; 10^-3 M", "result": "58.74±1.69", "unit": "%"}, {"measurement": "AChE (Electrophorus electricus) inhibitory activity (%) ± SD", "setting": "[1]; 10^-4 M", "result": "8.62 ± 0.22", "unit": "%"}, {"measurement": "AChE (Human) inhibitory activity (%) ± SD", "setting": "AChE (Human); 10^-3 M", "result": "59.17±1.11", "unit": "%"}, {"measurement": "AChE (Human) inhibitory activity (%) ± SD", "setting": "AChE (Human); 10^-4 M", "result": "7.21 ± 0.18", "unit": "%"}, {"measurement": "BChE (Equine) inhibitory activity (%) ± SD", "setting": "BChE (Equine); 10^-3 M", "result": "74.62±2.75", "unit": "%"}, {"measurement": "BChE (Equine) inhibitory activity (%) ± SD", "setting": "BChE (Equine); 10^-4 M", "result": "25.14 ± 1.42", "unit": "%"}, {"measurement": "BChE (Human) inhibitory activity (%) ± SD", "setting": "BChE (Human); 10^-3 M", "result": "70.98±2.39", "unit": "%"}, {"measurement": "BChE (Human) inhibitory activity (%) ± SD", "setting": "BChE (Human); 10^-4 M", "result": "20.65 ± 1.20", "unit": "%"}]}
{"molecule": "O=C(CSC(=S)N1CCN(C2CCCCC2)CC1)Nc1c2ccccc2nc2ccccc12", "note": "[Compound 4l, 2-(9-Acridin-ylamino)-2-oxoethyl 4-cyclohexylpiperazine-1-carbodithioate]", "values": [{"measurement": "AChE (Electrophorus electricus) inhibitory activity (%) ± SD", "setting": "[1]; 10^-3 M", "result": "56.11±2.46", "unit": "%"}, {"measurement": "AChE (Electrophorus electricus) inhibitory activity (%) ± SD", "setting": "[1]; 10^-4 M", "result": "3.90 ± 0.09", "unit": "%"}, {"measurement": "AChE (Human) inhibitory activity (%) ± SD", "setting": "AChE (Human); 10^-3 M", "result": "58.33±1.39", "unit": "%"}, {"measurement": "AChE (Human) inhibitory activity (%) ± SD", "setting": "AChE (Human); 10^-4 M", "result": "7.29 ± 0.18", "unit": "%"}, {"measurement": "BChE (Equine) inhibitory activity (%) ± SD", "setting": "BChE (Equine); 10^-3 M", "result": "84.88±3.34", "unit": "%"}, {"measurement": "BChE (Equine) inhibitory activity (%) ± SD", "setting": "BChE (Equine); 10^-4 M", "result": "45.88 ± 1.62", "unit": "%"}, {"measurement": "BChE (Human) inhibitory activity (%) ± SD", "setting": "BChE (Human); 10^-3 M", "result": "85.71±2.40", "unit": "%"}, {"measurement": "BChE (Human) inhibitory activity (%) ± SD", "setting": "BChE (Human); 10^-4 M", "result": "42.60 ± 1.53", "unit": "%"}]}
{"molecule": "O=C(CSC(=S)N1CCN(c2ccc(F)cc2)CC1)Nc1c2ccccc2nc2ccccc12", "note": "[Compound 4p, 2-(9-Acridinylamino)-2-oxoethyl 4-(4-fluorophenyl)piperazine-1-carbodithioate]", "values": [{"measurement": "AChE (Electrophorus electricus) inhibitory activity (%) ± SD", "setting": "[1]; 10^-3 M", "result": "98.66±2.98", "unit": "%"}, {"measurement": "AChE (Electrophorus electricus) inhibitory activity (%) ± SD", "setting": "[1]; 10^-4 M", "result": "48.40 ± 1.18", "unit": "%"}, {"measurement": "AChE (Human) inhibitory activity (%) ± SD", "setting": "AChE (Human); 10^-3 M", "result": "96.90±2.17", "unit": "%"}, {"measurement": "AChE (Human) inhibitory activity (%) ± SD", "setting": "AChE (Human); 10^-4 M", "result": "49.51 ± 1.50", "unit": "%"}, {"measurement": "BChE (Equine) inhibitory activity (%) ± SD", "setting": "BChE (Equine); 10^-3 M", "result": "93.27±3.07", "unit": "%"}, {"measurement": "BChE (Equine) inhibitory activity (%) ± SD", "setting": "BChE (Equine); 10^-4 M", "result": "48.65 ± 1.14", "unit": "%"}, {"measurement": "BChE (Human) inhibitory activity (%) ± SD", "setting": "BChE (Human); 10^-3 M", "result": "92.55±2.51", "unit": "%"}, {"measurement": "BChE (Human) inhibitory activity (%) ± SD", "setting": "BChE (Human); 10^-4 M", "result": "40.71 ± 1.08", "unit": "%"}]}
{"molecule": "COc1cc2c(cc1OC)C(=O)C(CC1CCN(Cc3ccccc3)CC1)C2", "note": "(stereo not shown) [Donepezil, reference compound]", "values": [{"measurement": "inhibition at 0.001 µM", "setting": "BChE (Equine); [2]", "result": "9.23 ± 0.08", "unit": "%"}, {"measurement": "inhibition at 0.01 µM", "setting": "BChE (Equine); [2]", "result": "15.3 ± 0.61", "unit": "%"}, {"measurement": "inhibition at 0.1 µM", "setting": "BChE (Equine); [2]", "result": "38.1 ± 0.89", "unit": "%"}, {"measurement": "inhibition at 1 µM", "setting": "BChE (Equine); [2]", "result": "54.3 ± 1.16", "unit": "%"}, {"measurement": "inhibition at 10 µM", "setting": "BChE (Equine); [2]", "result": "59.2 ± 1.54", "unit": "%"}, {"measurement": "inhibition at 100 µM", "setting": "BChE (Equine); [2]", "result": "71.7 ± 2.16", "unit": "%"}, {"measurement": "inhibition at 1000 µM", "setting": "BChE (Equine); [2]", "result": "82.2 ± 2.91", "unit": "%"}, {"measurement": "inhibition at 1000 µM", "setting": "BChE (Human); 10^-3 M, read-out: BChE (Human) inhibitory activity (%) ± SD", "result": "85.2 ± 2.01", "unit": "%"}, {"measurement": "inhibition at 100 µM", "setting": "BChE (Human); 10^-4 M, read-out: BChE (Human) inhibitory activity (%) ± SD", "result": "76.5 ± 2.08", "unit": "%"}, {"measurement": "inhibition at 10 µM", "setting": "BChE (Human); 10^-5 M, read-out: BChE (Human) inhibitory activity (%) ± SD", "result": "60.2 ± 1.37", "unit": "%"}, {"measurement": "inhibition at 1 µM", "setting": "BChE (Human); 10^-6 M, read-out: BChE (Human) inhibitory activity (%) ± SD", "result": "52.5 ± 1.05", "unit": "%"}, {"measurement": "inhibition at 0.1 µM", "setting": "BChE (Human); 10^-7 M, read-out: BChE (Human) inhibitory activity (%) ± SD", "result": "32.7 ± 0.95", "unit": "%"}]}
